Like-named read-outs stand apart in the source and are kept apart here. Where a SMILES comes first, the peptide text is derived from it. [ ]: non-standard residue; d: D form. The star is where a group is joined. Ac5c = NC1(C(=O)O)CCCC1; Cbz = O=C(OCc1ccccc1)*
What was measured:
[1] = target: T1, SARS-CoV-2 nsp14 MTase (Severe acute respiratory syndrome coronavirus 2, UniProt P0DTD1); test: biochemical; format: biochemical; conditions: for IC50: nsp14 MTase activity, high-throughput screening follow-up
[2] = target: nsp14 (Severe acute respiratory syndrome coronavirus 2, UniProt P0DTD1); test: surface plasmon resonance (SPR) binding to immobilized full-length biotinylated nsp14; set-up: species or system SARS-CoV-2
Description: For Surface Plasmon Resonance (SPR), the full-length biotinylated nsp14 was immobilized on the flow cell of a SA sensor chip in 1x HBS-EP buffer, achieving a response of 8000 RU. The assay was performed using the same buffer but with 2% DMSO added. Single-cycle kinetics were employed with a contact time of 60 seconds and a dissociation time of 120 seconds, at a flow rate of 75 µL/min. NSC620333 was tested at a concentration of 10 µM as the highest concentration, and a dilution factor of 0.25 was used to yield five different concentrations.

[3] = tested on: SARS-CoV-2; format: cell-based; conditions: Calu-3 cells, lung epithelial SARS-CoV-2 infection model
[4] = target: T1, SARS-CoV-2 nsp14 MTase; conditions: inhibition of nsp14 methyltransferase activity; cited from earlier work
[5] = compound 100µM, replicate experiment 1
[6] = compound 100µM, replicate experiment 2

Row | SMILES | nsp14 Inhibition % (100µM) Exp 1 [1, 5] [%] | nsp14 Inhibition % (100µM) Exp 2 [1, 6] [%] | further results
1 | O=C(O)c1ccc(C(=O)c2ccc(C(=O)c3ccc(C(=O)O)cc3)cc2)cc1 [NSC2269] | 64 | 60 | IC50 ([1]; read-out: IC50): 27 µM
2 | O=C(CN1CCOCC1)C(O)C(O)C(O)CO (stereo not shown) [NSC4348] | 73 | 61 | IC50 ([1]; read-out: IC50): 34 µM
3 | O=C(O)c1nc(N=Nc2ccc(S(=O)(=O)O)cc2)[nH]c1C(=O)O [NSC4624] | 65 | 47 | 
4 | O=C(N/N=C/[C@H](O)[C@H]1OC(=O)[C@@H](O)[C@H]1O)c1ccncc1 [NSC27605] | 26 | 10 | 
5 | OCC(O)C(O)C(O)C(O)c1nc2ccccc2s1 (stereo not shown) [NSC34443] | 86 | 81 | IC50 ([1]; read-out: IC50): 57 µM
6 | O=C(NNCNNC(=O)c1ccncc1)c1ccncc1 [NSC39302] | 7 | −2 | 
7 | Nc1nc2nn(-c3ccc(C(=O)NC(CCC(=O)O)C(=O)O)cc3)nc2c(=O)[nH]1 (stereo not shown) [NSC44037] | 15 | 9 | 
8 | OCCNc1ncnc2c1ncn2[C@@H]1O[C@H](CO)[C@@H](O)[C@H]1O [NSC54251] | 4 | −4 | 
9 | O=C1C2C3C=CC(O3)C2C(=O)N1/N=C/C(O)C(O)C(O)C(O)CO (stereo not shown) [NSC60360] | 4 | −4 | 
10 | O=c1cc(-c2ccc(O)cc2)oc2c(O)c(O)c(O)c(O)c12 [NSC76988] |  |  | IC50 ([1]; IC50 (µM)): 6 µM; inhibition at 100 µM ([1]; compound 100µM, replicate experiment 1, read-out: nsp14 Inhibition % (100µM) Exp 1): 100%; inhibition at 100 µM ([1]; compound 100µM, replicate experiment 2, read-out: nsp14 Inhibition % (100µM) Exp 2): 99%; direct binding to nsp14 [2]: no direct binding was detected; anti-SARS-CoV-2 activity [3]: demonstrated anti-SARS-CoV-2 activity
11 | O=C1C=C(O)C(=C/C=C/C=C/c2c(O)cc(O)cc2O)C(O)=C1 [NSC77131] | 99 | 99 | IC50 ([1]; read-out: IC50): 9 µM
12 | Nc1ncnc2c1ncn2[C@H]1C[C@H](O)[C@@H](COP(=O)(O)O)O1 [NSC77680] | 13 | 7 | 
13 | O=C(O)CNC(=O)C1(NC(=O)CNC(=O)OCc2ccccc2)CCCC1 [NSC80136] (Cbz-Gly-[Ac5c]-Gly-OH) | 13 | 2 | 
14 | O=C(CCCCn1ccc(=O)[nH]c1=O)Nc1ccc(C(=O)O)c(O)c1 [NSC92432] | 6 | −1 | 
15 | CN(CC(O)C(O)C(O)C(O)CO)CN1C(=O)C(=O)c2ccccc21 (stereo not shown) [NSC99790] | 46 | 36 | 
16 | O=S(=O)(O)c1cc(Cl)cc(N=Nc2ccc(O)cc2O)c1O [NSC102798] | 77 | 74 | 
17 | OC1COC(n2cnc3c(=S)nc[nH]c32)C(O)C1O (stereo not shown) [NSC107661] | 18 | 7 | 
18 | Nc1ncnc2c1ncn2C1OC(CO)C(NC(=O)C(N)Cc2ccccc2)C1O (stereo not shown) [NSC114010] | 11 | −3 | 
19 | NC(CCC(=O)NC(CSCc1ccc(F)cc1)C(=O)NCC(=O)O)C(=O)O (stereo not shown) [NSC131119] | 8 | 0 | 
20 | NC(CCCNc1nc(O)c(-c2ccccc2)c(=O)[nH]1)C(=O)O (stereo not shown) [NSC132916] | −1 | −3 | 

Row | SMILES | nsp14 Inhibition % (100µM) Exp 1 [1, 5] [%] | nsp14 Inhibition % (100µM) Exp 2 [1, 6] [%] | further results
21 | O=C(O)/C=C\C(=O)NCC1CCC(CNC(=O)/C=C\C(=O)O)CC1 (stereo not shown) [NSC137050] | 6 | −1 | 
22 | NS(=O)(=O)c1ccc(NC2OCC(O)C(O)C2O)cc1 (stereo not shown) [NSC158437] | 5 | 1 | 
23 | Nc1ncnc2c1ncn2C1OC(C(=O)NCC(=O)O)C(O)C1O (stereo not shown) [NSC163444] | 9 | 5 | 
24 | O=C(O)c1cc(=O)n(CCCCCCn2c(=O)cc(C(=O)O)[nH]c2=O)c(=O)[nH]1 [NSC232469] | 7 | −7 | 
25 | O=P(O)(O)OC[C@H]1O[C@@H](n2cnc3c(NCc4ccccc4)ncnc32)[C@H](O)[C@@H]1O [NSC255523] | 59 | 33 | 
26 | CC(C)=CCNc1ncnc2c1ncn2[C@@H]1O[C@H](COP(=O)(O)O)[C@@H](O)[C@H]1O [NSC268226] | 9 | 0 | 
27 | Cn1c(=O)c2c(ncn2CCCNCC(O)c2ccc(O)c(CO)c2)n(C)c1=O (stereo not shown) [NSC293892] | 15 | 3 | 
28 | CC(CCc1ccc2c(c1)OCO2)NCC(O)c1ccc(O)c(C(N)=O)c1 (stereo not shown) [NSC313453] |  |  | inhibition at 100 µM ([1]; read-out: nsp14 Inhibition % (100µM) Exp 1): 3%; inhibition at 100 µM ([1]; read-out: nsp14 Inhibition % (100µM) Exp 2): -5%
29 | O=C(O)CCC(=O)NCC1CCCC(CNC(=O)CCC(=O)O)C1 (stereo not shown) [NSC317609] | 7 | 1 | 
30 | O=P(O)(O)OC1OC(n2cnc3c(NCc4ccc(F)cc4)ncnc32)C(O)C1O (stereo not shown) [NSC330685] | 4 | 2 | 
31 | O=C(O)C(Cc1ccc(O)cc1)NC(c1ccccc1)P(=O)(O)O (stereo not shown) [NSC377438] | 8 | −3 | 
32 | NC(CSCCSCCSCC(N)C(=O)O)C(=O)O (stereo not shown) [NSC400718] | 89 | 88 | IC50 ([1]; read-out: IC50): 38 µM
33 | O=S(=O)(O)c1ccc(N=Nc2c(O)ccc3n[nH]nc23)cc1 [NSC400937] | 73 | 66 | 
34 | O=c1ccn(C2OC(C(O)CO)C(O)C2O)c(=O)[nH]1 (stereo not shown) [NSC613624] | 4 | −1 | 
35 | COc1cc(N=Nc2ccccc2C(=O)O)cc(/C=N/NNC(N)=S)c1O [NSC630814] | 84 | 82 | 
36 | O=C1NC(=O)C(C(=O)C(=O)Nc2cccc(C(F)(F)F)c2)C(=O)N1 [NSC646375] | 26 | 20 | 
37 | NC(CCCC(N)P(=O)(O)c1ccccc1)P(=O)(O)c1ccccc1 (stereo not shown) [NSC655184] | 7 | −11 | 
38 | O=C(O)c1ccc(Nc2nc3ccccc3nc2C(=O)O)cc1 [NSC670682] | 50 | 54 | 
39 | N#Cc1cn([C@@H]2O[C@H](CSCC[C@H](N)C(=O)O)C(O)[C@@H]2O)c2ncnc(N)c12 (stereo partly shown) [SS148] |  |  | IC50 [4]: 0.07 ± 0.006 µM

— publication doi:10.1101/2023.10.03.560722, “Drug Discovery in Low Data Regimes: Leveraging a Computational Pipeline for the Discovery of Novel SARS-CoV-2 Nsp14-MTase Inhibitors” (bioRxiv, 2024)
